Biological target: Retinol-binding protein 4 (Homo sapiens, UniProt P02753)
Test: Displacement of [3H]-all-trans-retinol from biotinylated human urine derived RBP4 measured after 16 hrs by scintillation proximity assay

## Cc1cc(C(=O)O)nc(N2CCC(COc3ccccc3C(F)(F)F)C2)n1 (stereo unspecified)
  IC50: 80 nM

From BindingDB's records for doi:10.1021/acs.jmedchem.0c00996 (Albany College of Pharmacy and Health Sciences, 2020)
